Results: patent US6649646B2, “Insecticidal and miticidal compositions” (priority 1996, dated 2003)

What follows are compounds tested on Kanzawa spider mite (Tetranychus kanzawai kishida) which had acquired a strong resistance to chlorfenapyr (assay: Miticidal effect against female imagines of chlorfenapyr-resistant Kanzawa spider mite, leaf disk spray test). Conditions: LC50 resistant strain relative to susceptible strain.
Assay type: in vivo
Text: For a T value equal to 100, an additive action is indicated.
With `CCOCn1c(-c2ccc(Cl)cc2)c(C#N)c(Br)c1C(F)(F)F` [Chlorfenapyr, 4-Bromo-2-(4-chlorophenyl)-1-(ethoxymethyl)-5-(trifluoromethyl)pyrrole-3-carbonitrile] the “resistance to chlorfenapyr of the resistant strain versus susceptible strain” value was ~300 fold.

Same assay, conditions: in vivo
For `CCCSP(=S)(OCC)Oc1ccc(Cl)cc1Cl` (stereo not drawn) [Prothiophos, O-2,4-Dichlorophenyl-O-ethyl-S-propylphosphorodithioate], the LC50 was 260 ppm.

Same assay, conditions: single test compound; female imago, chlorfenapyr-resistant strain; mortality two days after spray treatment, 25±1° C.; probit analysis
For `COP(=S)(OC)Oc1nc(Cl)c(Cl)cc1Cl` [Chlorpyrifosmethyl, O,O-Dimethyl-O-3,5,6-trichloro-2-pyridylphosphorothioate], the LC50 was 790 ppm.
In the case of `CCOC(=O)C(SP(=S)(OC)OC)c1ccccc1` (stereo not drawn) [PAP, Ethyl dimethyldithiophosphorylphenylacetate], the LC50 is reported as 2000 ppm.
`CCCSP(=S)(OCC)Oc1ccc(SC)cc1` (stereo not drawn) [Sulprofos, O-Ethyl-O-4-methylthiophenyl-S-propyl-phosphorodithioate] showed an LC50 of 320 ppm.
With `CCOP(=S)(OCC)Oc1cc(C)nc(C(C)C)n1` [Diazinon, (2-isopropyl-4-methylpyrimidyl-6)-diethylthiophosphate] the LC50 was 3200 ppm.
Compound `COP(=S)(OC)Oc1ccc(C#N)cc1` [CYAP, O,O-Dimethyl-O-p-cyanophenylthiophosphate] has an LC50 of 3200 ppm.
Compound `CCOCn1c(-c2ccc(Cl)cc2)c(C#N)c(Br)c1C(F)(F)F` [Chlorfenapyr, 4-Bromo-2-(4-chlorophenyl)-1-(ethoxymethyl)-5-(trifluoromethyl)pyrrole-3-carbonitrile] has an LC50 of 1500 ppm.
`CCOP(=S)(OCC)SCn1c(=O)oc2cc(Cl)ccc21` [Phosalone, 3-Diethoxyphosphorylthiomethyl-6-chlorobenzoxazolone] showed an LC50 of 350 ppm.
Compound `CCOP(=S)(OCC)Oc1nc(Cl)c(Cl)cc1Cl` [Chlorpyrifos, O,O-Diethyl-O-3,5,6-trichloro-2-pyridylphosphorothioate] has an LC50 of 3200 ppm.
For `CCOC(=O)CC(SP(=S)(OC)OC)C(=O)OCC` (stereo not drawn) [Malathon, Dimethyldicarbethoxyethyldithiophosphate], the LC50 was 3400 ppm.
Compound `COP(=S)(OC)Oc1ccc(SC)c(C)c1` [MPP, O,O-Dimethyl-O-[3-methyl-4-(methylthio)phenyl]-thiophosphate] has an LC50 of 1100 ppm.
In the case of `CCOP(=S)(OCC)Oc1ccc(=O)n(-c2ccccc2)n1` [Pyridaphenthion, O,O-Diethyl-O-(3-oxo-2-phenyl-2H-pyridazin-6-yl) phosphorothioate], the LC50 is reported as 1900 ppm.
In the case of `COP(=S)(OC)Oc1ccc([N+](=O)[O-])c(C)c1` [MEP, O,O-Dimethyl-O-(3-methyl-4-nitrophenyl)thiophosphate], the LC50 is reported as 3200 ppm.
In the case of `CCOP(=S)(OCC)SCSP(=S)(OCC)OCC` [Ethion, O,O,O′,O′-Tetraethyl-S,S′-methylenebisphosphorodithioate], the LC50 is reported as 3100 ppm.
With `CCOP(=S)(Oc1ccc([N+](=O)[O-])cc1)c1ccccc1` (stereo not drawn) [EPN, Ethyl p-nitrophenylthionobenzenephosphonate] the LC50 was 3100 ppm.
In the case of `CC(C)OP(=O)(OC(C)C)SCc1ccccc1` [IBP, O,O-Diisopropyl-S-benzylthiophosphate], the LC50 is reported as 1300 ppm.

What follows are compounds tested on susceptible strain of spider mite (assay: LC50 against a susceptible strain of spider mite). Conditions: not given.
Assay type: in vivo
With `CCOCn1c(-c2ccc(Cl)cc2)c(C#N)c(Br)c1C(F)(F)F` [Chlorfenapyr, 4-Bromo-2-(4-chlorophenyl)-1-(ethoxymethyl)-5-(trifluoromethyl)pyrrole-3-carbonitrile] the LC50 was “about 5 ppm”.
